Source: patent publication US8278090B1, “Heterotrophic cultivation of hydrocarbon-producing microalgae” (Solazyme, Inc., priority 2008, dated 2012)
Values joined by “and” are separate entries in the source; they are usually repeats but may differ in a detail not shown here. Identical values can stand only once.

How the values were obtained:
Type in all cases: cell-based
[1] = test system: Botryococcus braunii (strain UTEX 572); assay: Media component screening in heterotrophic culture; details: UTEX 572, 0.2% component + 3% glucose, 6-well plates, dark, room temperature, 16 days
Description: Media components incorporated in soil bacteria media were tested in heterotrophic culture of Botryococcus braunii (strain UTEX 572). For each component tested, 5 ml of B11 media (as described in Example 2 above) supplemented with 3% glucose (Fisher) were prepared in 6-well plates. Additionally, the media was supplemented with 0.2% of one of the following soil bacteria media components: dextrin (MP Biomedicals), malt extract (MP Biomedicals), traders yeast (Pharmamedia), corn meal, corn steep powder (Marcor), whole dead yeast (Engevita), casein type M (Marcor), casein type B (Marcor), tomato paste, molasses, soy hydrolysate (MP Biomedicals), soy flour (Arrowhead Mills), corn starch (Sigma), and maltose (Fisher). Wells were inoculated and cultures were grown at room temperature in the dark for 16 days. […] All media were filter sterilized.
The cells from each condition were transferred into 150 mL T150 flasks containing 50 mL B11 media with 3% glucose and 0.2% of their respective supplemental component. Cultures were grown in the dark for one week at 28° C. Cells were pelleted and fresh media (100 mL) were added to the cultures. The cultures were allowed to grow for another two weeks in the dark at 28° C. and then were collected and dry cell weights were measured. For most conditions, the addition of a 0.2% supplemental component increased cell growth as compared to glucose control. […]

[2] = test system: Botryococcus braunii UTEX 572; assay: Heterotrophic growth with glucose, 24 well plate, dark or light; details: for DCW g/L / DCW mg/ml.: 4 weeks
Description: (§1) Modified BG-11 (17.65 mM NaNO3, 0.23 mM K2PO4, 0.3 mM MgSO4.7H2O, 0.25 mM CaCl2.2H2O, 0.189 mM Na2CO3, 0.03 mM citric acid monohydrate, 0.023 mM ferric ammonium citrate, 0.046 mM H3BO3, 9.15 μM MnCl2.4H2O, 0.77 μM ZnSO4.7H2O, 0.32 μM CuSO4.5H2O, 0.21 μM CoCl2.6H2O, 1.62 μM NaMoO4.2H2O, 2.69 μM Na2EDTA, 9 mg/l Tricine, 1.99 μM Thiamine-HCl, 0.006 μM Cyanocobalamine, 0.044 μM Calcium Pantothenate, 0.29 μM p-aminobenzoic acid, soil water).

[3] = test system: Botryococcus braunii UTEX 2441; assay: as above; details: for DCW g/L / DCW mg/ml.: 4 weeks
Description: as §1

[4] = test system: Botryococcus braunii (UTEX 572); assay: High surface to volume heterotrophic cultivation; details: UTEX 572, 3% glucose, dark, stepwise scale-up
Description: In order to develop a reproducible, scalable process for the heterotrophic cultivation of B. braunii, a low-volume, slow-mixing heterotrophic procedure was developed. Botryococcus braunii (UTEX 572) cultures were transferred from solid media plates into 6-well plates using B-11 media supplemented with 3% glucose and was grown for one week at room temperature in the dark. The cultures were then transferred into 50 mL of fresh media in a 150 mL T-flask and agitated at 40 rpm on a plate shaker for one week at room temperature in the dark. The cultures were then transferred into 100 mL of fresh media in a 500 mL T-flask and agitated at 30 rpm with a two-inch throw for one week at room temperature in the dark. Finally, the cultures were transferred into 350 mL of fresh media in a Fernbach flask and agitated at 30 rpm with a two-inch throw for one week at room temperature in the dark. In one set of cultures, the cells were transferred into 500 mL of fresh media in a Fernbach flask (instead of 350 mL). Dry cell weights were collected for all cultures and compared. Cultures that were grown in a final volume of 350 mL of media reached a DCW of about 9 grams per liter.

[5] = test system: Botryococcus braunii N-836; assay: Different fixed carbon sources on heterotrophic growth, visual score; set-up: key to heterotrophic growth score, 0.1% / heterotrophic growth score, 0.5% / heterotrophic growth score, 1%: Growth was scored with +'s by visual examination of the cultures; ++: Growth was scored with +'s by visual examination of the cultures; +++: Growth was scored with +'s by visual examination of the cultures; ++++: Growth was scored with +'s by visual examination of the cultures; +++++: Growth was scored with +'s by visual examination of the cultures
Description: (§2) All carbon sources were tested at three different concentrations; 0.1%, 0.5% and 1%. Cultures were grown in 24 well plates for 4 weeks in the dark in 1 ml BG11 plus fixed carbon. Control cultures were grown in BG-11 media under phototrophic conditions without a fixed carbon source. Growth was scored with +'s by visual examination of the cultures (see Table 7). UTEX 572 grew best in glucose, however there was also growth on mannose, galactose and fructose. UTEX 2441 preferred mannose in the dark but there was some growth in galactose, fructose and glycerol.

[6] = test system: Botryococcus braunii UTEX 572; assay: as above; set-up: key to heterotrophic growth score, 0.1% / heterotrophic growth score, 0.5% / heterotrophic growth score, 1%: Growth was scored with +'s by visual examination of the cultures; ++: Growth was scored with +'s by visual examination of the cultures; +++: Growth was scored with +'s by visual examination of the cultures; ++++: Growth was scored with +'s by visual examination of the cultures; +++++: Growth was scored with +'s by visual examination of the cultures
Description: as §2

[7] = test system: Botryococcus braunii UTEX 2441; assay: as above; set-up: key to heterotrophic growth score, 0.1% / heterotrophic growth score, 0.5% / heterotrophic growth score, 1%: Growth was scored with +'s by visual examination of the cultures; ++: Growth was scored with +'s by visual examination of the cultures; +++: Growth was scored with +'s by visual examination of the cultures; ++++: Growth was scored with +'s by visual examination of the cultures; +++++: Growth was scored with +'s by visual examination of the cultures; details: 4 weeks
Description: as §2

[8] = test system: Botryococcus braunii N-836; assay: Complex nitrogen sources on heterotrophic growth with glucose; details: N-836, 1% glucose in BG11, dark, 4 weeks
Description: (§3) The following experiment was done with UTEX 572, UTEX 2441, and N-836 in 20 ml of BG11 plus:
(§4) 1% glucose+2 g/L hydrolyzed casein

[9] = test system: Botryococcus braunii UTEX 572; assay: as above; details: UTEX 572, 1% glucose in BG11, dark, 4 weeks
Description: as §3, §4

[10] = test system: Botryococcus braunii UTEX 2441; assay: as above; details: UTEX 2441, 1% glucose in BG11, dark, 4 weeks
Description: as §3, §4

Compound: OC[C@H]1O[C@H](O[C@H]2[C@H](O)[C@@H](O)C(O)O[C@@H]2CO)[C@H](O)[C@@H](O)[C@@H]1O (mixture of isomers) [maltose]
- growth by visual observation as compared to glucose only control [1]: better growth

Compound: O=C[C@H](O)[C@@H](O)[C@H](O)[C@H](O)CO [glucose]
- DCW g/L ([2]; UTEX 572, 0.1% glucose, dark): 0.2 g/L
- DCW mg/ml. ([2]; UTEX 572, 0.1% glucose, dark): 0.2 mg/mL
- DCW g/L ([2]; UTEX 572, 0.2% glucose, dark): 0.2 g/L
- DCW mg/ml. ([2]; UTEX 572, 0.2% glucose, dark): 0.2 mg/mL
- DCW g/L ([2]; UTEX 572, 0.5% glucose, dark): 0.4 g/L
- DCW mg/ml. ([2]; UTEX 572, 0.5% glucose, dark): 0.4 mg/mL
- growth in the dark at 1% glucose compared with 0.1 and 0.5% ([2]; UTEX 572, 1% glucose, dark): best growth
- growth with glucose in the dark ([2]; UTEX 572, BG11 plus glucose, dark): clearly grew
- growth with glucose in the light ([2]; UTEX 572, BG11 plus glucose, light): no growth
- DCW g/L ([3]; UTEX 2441, 0.1% glucose, dark): 0.3 g/L
- DCW mg/ml. ([3]; UTEX 2441, 0.1% glucose, dark): 0.3 mg/mL
- DCW g/L ([3]; UTEX 2441, 0.2% glucose, dark): 0.3 g/L
- DCW mg/ml. ([3]; UTEX 2441, 0.2% glucose, dark): 0.3 mg/mL
- DCW g/L ([3]; UTEX 2441, 0.5% glucose, dark): 0.1 g/L
- DCW mg/ml. ([3]; UTEX 2441, 0.5% glucose, dark): 0.1 mg/mL
- growth in the dark at 1% glucose compared with 0.1 and 0.5% ([3]; UTEX 2441, 1% glucose, dark): best growth
- DCW g/L ([3]; UTEX 2441, 1.0% glucose, dark): 0.7 g/L
- DCW mg/ml. ([3]; UTEX 2441, 1.0% glucose, dark): 0.7 mg/mL
- growth with glucose in the dark ([3]; UTEX 2441, BG11 plus glucose, dark): clearly grew
- growth with glucose in the light ([3]; UTEX 2441, BG11 plus glucose, light): no growth
- DCW ([4]; final volume 350 mL): about 9 grams per liter
- DCW ([4]; final volume 500 mL): about 3 grams per liter
- heterotrophic growth score, 0.1% ([5]; N-836, 0.1% carbon source in 1 ml BG11, dark, 4 weeks): ++
- heterotrophic growth score, 0.5% ([5]; N-836, 0.5% carbon source in 1 ml BG11, dark, 4 weeks): ++
- heterotrophic growth score, 1% ([5]; N-836, 1% carbon source in 1 ml BG11, dark, 4 weeks): +++
- heterotrophic growth on carbon source, in words ([5]; N-836, dark): heterotrophic growth
- heterotrophic growth score, 0.1% ([6]; UTEX 572, 0.1% carbon source in 1 ml BG11, dark, 4 weeks): +++
- heterotrophic growth score, 0.5% ([6]; UTEX 572, 0.5% carbon source in 1 ml BG11, dark, 4 weeks): ++++
- heterotrophic growth score, 1% ([6]; UTEX 572, 1% carbon source in 1 ml BG11, dark, 4 weeks): +++++
- heterotrophic growth on carbon source, in words ([6]; UTEX 572, dark): grew best
- heterotrophic growth score, 0.1% ([7]; UTEX 2441, 0.1% carbon source in 1 ml BG11, dark): ++
- heterotrophic growth score, 0.5% ([7]; UTEX 2441, 0.5% carbon source in 1 ml BG11, dark): ++
- heterotrophic growth score, 1% ([7]; UTEX 2441, 1% carbon source in 1 ml BG11, dark): ++++
- DCW [8]: 0.267 g/L
- DCW mg/3 m1. [8]: 0.8 mg/3 m1
- DCW [9]: 0.20 g/L and 0.33 g/L
- DCW mg/3 m1. [9]: 0.6 mg/3 m1 and 1.0 mg/3 m1
- DCW [10]: 0.067 g/L
- DCW mg/3 m1. [10]: 0.2 mg/3 m1
